Here are results for 1 compound from patent US7417162B2, “Oily ingredient for cosmetic preparation and cosmetic preparation” (Kyowa Yuka Co., Ltd., priority 2001, dated 2008).

This data set can be described thus: Test for solubility of a UV-A absorber in the oil. The class given is physicochemical. The note with it: for Solubility of a UV-A absorber: UV-A absorber dissolved to saturation in the compound. The protocol:
Then, absorbance (A) of a peak observed near 350 nm was measured. Solubility was figured out from a value calculated by the following equation and a weight of a sample prepared. The measurement temperatures are at room temperature ([…]) and 50° C.

As for `CCC(CC(CC)C(=O)OC)C(=O)OC` (stereo not drawn) [Compound 3, dimethyl 2,4-diethylglutarate], the “Solubility of a UV-A absorber” value was 40.7 g/100 g (50° C.) and 23.1 g/100 g (room temperature (25° C.)). Also, under “in comparison to comparative compound 1”, the “Solubility of the UV-A absorber, in words” value was “excellent”.
